Measured values as given in patent US9512176B2, “Age inhibitors” (Centre National de la Recherche Scientifique, priority 2005, dated 2016).
Entries after “also recorded” stand apart in the source; their conditions may differ. Each block holds one compound with its values, some of them ahead of it. Non-standard residues stand in square brackets, D forms with d. Residues, ends and D or L forms follow the SMILES beside them. ξ: configuration not given here. Ile(3ξ) = CCC(C)[C@H](N)C(=O)O; dDap = NC[C@@H](N)C(=O)O; Dap = NC[C@H](N)C(=O)O

Experiments:
[1] = system: EA.hy 926 cell line; assay: Growth of EA.hy 926 endothelial cells with MG scavengers and/or methylglyoxal (MTT); assay type: cell-based, human; settings: for viability at 1000 µM: Homo sapiens, EA.hy 926, read-out: Cells + MG scavengers + Methylglyoxal (B); for Difference (B) − (A): Table 2, cells with scavenger + MG minus cells with scavenger alone; for Cells + MG scavengers (A): scavenger 1 mM, no methylglyoxal, number of cells relative to untreated control cells; for effect against suppression of cell growth by MG: scavenger + methylglyoxal; for difference between number of cells growing with compound and with MG and compound: values in brackets; for cell toxicity: text b496, compound alone
Method: The cells used for the test are from the EA.hy 926 cell line, which are endothelial cells obtained by the hybridization of human umbilical vein endothelial cells (HUVECs) with lung cancer cells (A549). The EA.hy 926 endothelial cells are incubated in Dulbecco's modified Eagle's Medium (DMEM) enriched with 10% fetal calf serum. The cells are incubated in 12-well plates. Each well initially contains 100,000 cells. Cell growth is achieved by incubating the cells in 2 ml of culture medium after adding or not adding the various potential inhibitors (1 mM) and/or methylglyoxal (600 μM) for 48 hours at 37° C. in a moist atmosphere with 5% CO2.
The number of cells is evaluated in the following way:
The cells are stained using the (4,5-dimethylthiazol-2-yl)-2,5-diphenyltetrazolium bromide (MTT) assay. MTT penetrates in the cell where it is converted into formazan. The quantity of formazan formed is proportional to the number of living cells.
The results are expressed as a relative percentage of the number of cells after treatment compared to the number of control cells without treatment [100*OD (treated cells)/OD (control cells)]. Detection is carried out by UV/visible spectrophotometry at 570 nm.
Principle: MTT (yellow) penetrates the cell and is converted into an insoluble blue compound, formazan, by cleavage of its tetrazolium rings by the mitochondrial dehydrogenase enzymes of living cells. Formazan is solubilized by isopropanol. The number of cells is proportional to the quantity of formazan formed and its absorbance.

[2] = system: ribonuclease A; assay: Enzymatic activity of ribonuclease A after treatment with methylglyoxal and inhibitors (methylene blue RNA staining); assay type: biochemical; settings: ribonuclease A treated with methylglyoxal (MG) + inhibitor in equimolar quantity, 37° C.; control RNase 100, RNase + methylglyoxal 10.11%
Method: (§1) Ribonuclease A and lysozyme (10 mg/ml) are incubated in the presence of methylglyoxal (10 mM) or in the presence of methylglyoxal and one of the inhibitors according to the present invention in an equimolar quantity at 37° C. After 48 hours of incubation, the proteins are analyzed by polyacrylamide gel electrophoresis (8%-16% SDS PAGE gel).
The enzymatic activity of ribonuclease A after treatment with methylglyoxal and the various inhibitors according to the present invention is measured using the methylene blue RNA staining technique of Greiner-Stöffele et al. (Anal. Biochem. (1996) 240, 24).

[3] = system: ribonuclease A; assay: SDS PAGE electrophoresis of ribonuclease A incubated with methylglyoxal and inhibitor; assay type: biochemical; settings: ribonuclease A 10 mg/ml, methylglyoxal 10 mM, inhibitor equimolar, 37° C., 48 hours
Method: as §1
The AGE inhibitors according to the present invention, namely L-DAPA-L-Leu (example 1) and L-DAPA-L-Ile (example 18), or AG (10 mM) are incubated with MG and ribonuclease A for […] at 37° C.

[4] = system: lysozyme; assay: SDS PAGE electrophoresis of lysozyme incubated with methylglyoxal and inhibitor; assay type: biochemical; settings: lysozyme 10 mg/ml, methylglyoxal 10 mM, inhibitor equimolar, 37° C., 48 hours
Method: as §1

[5] = system: glyoxalase I; assay: Glyoxalase I treated with methylglyoxal: non-denaturing electrophoresis and enzymatic activity; assay type: biochemical
Method: MG reacts with a protein's lysine and arginine residues, thus altering the charges on the modified polypeptide. […] The exposure of glyoxalase I to MG (10 mM) for 24 hours increases the mobility of the protein toward the positive electrode, a change that is consistent with the loss of positive charges from the ε-amino and guanidino groups and the gain of negative charges.
The incubation of glyoxalase I, a key protein in the α-oxoaldehyde detoxification system, in the presence of methylglyoxal, modifies the protein. This modification causes a change in charge and a 50% decrease in enzymatic activity compared to the control.

[6] = system: RNase A; assay: RNase A modifications induced by methylglyoxal (HPLC); assay type: biochemical; settings: RNase A 0.08 mM, methylglyoxal 32 mM, compound 38 mM, 21 hours at 37° C.
Method: FIGS. 11 to 13 present the results obtained by HPLC for three compounds according to the present invention, L-DAPA-L-Ile (example 18), L-DAPA-L-Val (example 23) and L-DAPA-L-Leu (example 1), on RNase A modifications induced by methylglyoxal. HPLC conditions are as follows: C-18, Symmetry 300 (4.6×250 mm) column, injection volume 100 μl of reaction mixture diluted to 1/10; flow 1 ml/min; temperature 40° C.; solvent A: H2O+0.1% TFA; solvent B: 60/40 CH3CN/H2O+0.1% TFA; linear gradient of 20% B to 80% B in 20 minutes; detection: UV at 215 nm: PDA (chromatograms extracted at 215 nm).

[7] = scavenger 1 mM + methylglyoxal 600 μM, 48 hours, relative to untreated control cells, MG alone 24, mean of 3 experiments
[8] = 48 hours, mean of 3 experiments

SMILES: NCCC(=O)N[C@@H](Cc1cnc[nH]1)C(=O)O [Carnosine, β-alanyl-L-histidine, reference compound]
viability at 1000 µM [1, 7]: 50%
Difference (B) − (A) [1]: −49
Cells + MG scavengers (A) [1, 8]: 99%
effect against suppression of cell growth by MG [1]: less effective

SMILES: NCCCC[C@H](N)C(=O)O [L-Lys, reference compound]
Difference (B) − (A) [1]: −38
Cells + MG scavengers + Methylglyoxal (B) [1, 7]: 43%
Cells + MG scavengers (A) [1, 8]: 81%

SMILES: CN(C)C(=N)N=C(N)N [Metformin, reference compound]
viability at 1000 µM [1, 7]: 45%
Difference (B) − (A) [1]: −46
toxicity with respect to EA cells ([1]; compound alone, 1 mM): extremely low toxicity
Cells + MG scavengers (A) [1, 8]: 91%
effect against suppression of cell growth by MG [1]: less effective; also recorded: weak scavenger

SMILES: CC(C)C[C@H](NC(=O)[C@@H](N)CN)C(=O)O [example 3, L-DAPA-L-Leu.2TFA] (H-[Dap]-Leu-OH)
difference between number of cells growing with compound and with MG and compound [1]: −18

SMILES: C[C@@H](NC(=O)[C@H](N)CN)C(=O)O [example 8, D-DAPA-D-Ala.2HCl] (H-[dDap]-[dA]-OH)
Enzymatic activity (%) [2]: 87.37%
viability at 1000 µM [1, 7]: 71%
Difference (B) − (A) [1]: −6
Cells + MG scavengers (A) [1, 8]: 77%
cell toxicity [1]: 39%
difference between number of cells growing with compound and with MG and compound [1]: +1
protection from structural modifications (dimer form) caused by methylglyoxal [3]: provides protection
protection from structural modifications (dimer form) caused by methylglyoxal [4]: provides protection

SMILES: CC(C)C[C@H](NC(=O)[C@@H](N)[C@H](C)N)C(=O)O [example 12, (2S,3S)-DABA-L-Leu.2HCl]
Enzymatic activity (%) [2]: 80.97%
viability at 1000 µM [1, 7]: 73%
Difference (B) − (A) [1]: −4
Cells + MG scavengers (A) [1, 8]: 77%
difference between number of cells growing with compound and with MG and compound [1]: −4
protection from structural modifications (dimer form) caused by methylglyoxal [3]: provides protection
protection from structural modifications (dimer form) caused by methylglyoxal [4]: provides protection

Continued, in another order:

Cells + MG scavengers (A) [1, 8]: 71%
SMILES: CC(C)C[C@H](NC(=S)[C@@H](N)CN)C(=O)O [example 16, L-DAPA-L-(S)-Leu.2HCl]
Enzymatic activity (%) [2]: 75.69%
viability at 1000 µM [1, 7]: 74%
Difference (B) − (A) [1]: +3

Cells + MG scavengers (A) [1, 8]: 54%
SMILES: NC[C@H](N)C(=O)NCC(=O)O [example 17, L-DAPA-Gly.2HCl] (H-[Dap]-Gly-OH)
Enzymatic activity (%) [2]: 85.61%
viability at 1000 µM [1, 7]: 50%
Difference (B) − (A) [1]: −4
cell toxicity [1]: 43%
difference between number of cells growing with compound and with MG and compound [1]: +3
protection from structural modifications (dimer form) caused by methylglyoxal [3]: provides protection
protection from structural modifications (dimer form) caused by methylglyoxal [4]: provides protection

Cells + MG scavengers (A) [1, 8]: 86%
gain of negative charge of glyoxalase I exposed to MG ([5]; MG 10 mM, 24 hours, non-denaturing electrophoresis): inhibits the gain of negative charge
RNase A modifications induced by methylglyoxal [6]: prevent the modifications to RNase A
SMILES: CCC(C)[C@H](NC(=O)[C@@H](N)CN)C(=O)O (stereo partly drawn) [example 18, L-DAPA-L-Ile.2HCl] (H-[Dap]-[Ile(3ξ)]-OH)
Enzymatic activity (%) [2]: 90.77%
cell survival when incubated with MG [1]: 79%
viability at 1000 µM [1, 7]: 79%
Difference (B) − (A) [1]: −7
effect against suppression of cell growth by MG [1]: same trend
difference between number of cells growing with compound and with MG and compound [1]: −9
protection from structural modifications (dimer form) caused by methylglyoxal [3]: provides protection
protection from structural modifications (dimer form) caused by methylglyoxal [4]: provides protection
inhibition of glyoxalase I enzymatic activity and structural modification by methylglyoxal ([5]; MG alone: 50% decrease in enzymatic activity): prevents the inhibition exerted by methylglyoxal and protects against structural modifications

Cells + MG scavengers (A) [1, 8]: 77%
SMILES: NC[C@H](N)C(=O)N[C@@H](Cc1ccccc1)C(=O)O [example 21, L-DAPA-L-Phe.2HCl] (H-[Dap]-Phe-OH)
Enzymatic activity (%) [2]: 70.20%
viability at 1000 µM [1, 7]: 71%
Difference (B) − (A) [1]: −6
difference between number of cells growing with compound and with MG and compound [1]: −6

Cells + MG scavengers (A) [1, 8]: 61%
SMILES: N[C@H](C(=O)NCC(=O)O)[C@@H](N)C(=O)NCC(=O)O [example 28, (2S,3R)-DASA-1-Gly-4-Gly.2HCl]
viability at 1000 µM [1, 7]: 54%
Difference (B) − (A) [1]: −7

Cells + MG scavengers (A) [1, 8]: 85%
SMILES: CC(C)[C@H](NC(=O)[C@@H](N)[C@H](N)C(=O)N[C@H](C(=O)O)C(C)C)C(=O)O [example 29, (2S,3S)-DASA-1-L-Val-4-L-Val.2HCl]
Enzymatic activity (%) [2]: 75.09%
viability at 1000 µM [1, 7]: 70%
Difference (B) − (A) [1]: −15
difference between number of cells growing with compound and with MG and compound [1]: −15
protection from structural modifications (dimer form) caused by methylglyoxal [3]: provides protection
protection from structural modifications (dimer form) caused by methylglyoxal [4]: provides protection
